According to publication PMC3319978 (Biochemical Pharmacology, 2011):

Tests used:
[1] = tested on: ATCC35218 E. coli blaTEM-1; test: Disc diffusion susceptibility testing; conditions: 10 μg of ampicillin and each inhibitor, MH agar, 37 °C, 18 h
[2] = molecular target: PDC-3 β-lactamase (Pseudomonas aeruginosa, UniProt P24735, T105A); test: Inhibition of nitrocefin hydrolysis; type: biochemical
[3] = tested on: β-lactamases; conditions: serve as excellent substrates of the β-lactamases; ref 27 (Fisher et al.); cited from earlier work

CC1(C)S[C@@H]2[C@H](NC(=O)[C@H](N)c3ccccc3)C(=O)N2[C@H]1C(=O)O [Ampicillin, ampicillin] gave a Zone diameter [1] of 6 mm.

For O=C(O)[C@H]1/C(=C/CO)O[C@@H]2CC(=O)N21 [Clavulanic acid, clavulanic acid], the IC50 [2] was > 100 µM.

In the case of CC1(C)[C@H](C(=O)O)N2C(=O)[C@@H](NC(=O)Cc3ccccc3)[C@H]2S1(=O)=O [compound 19, penicillin G sulfone], the β-Lactamase inhibition [3] is listed as “poor β-lactamase inhibitors”.
